Source: ChEMBL document CHEMBL1201862, “PubChem BioAssay data set” (2004)
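The compound was tested at five concentrations on cells cultured in 96-well plates, with a 48-hour exposure period. GI50 = concentration required for 50% inhibition of growth.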 Calls of active or inactive are those of the source. No stated cut-off is given here; in the data, active = GI50 up to about 1.1 µM and inactive = higher.

Experiments:
Test in all cases: NCI-60 cell line screen, 48 h
Malme-3M = system: Malme-3M
A549 = system: A549
COLO 205 = system: COLO 205
ACHN = system: ACHN
NCI-H226 = system: NCI-H226
OVCAR-5 = system: OVCAR-5
SK-MEL-28 = system: SK-MEL-28
SW-620 = system: SW-620
MDA-MB-231 = system: MDA-MB-231
OVCAR-8 = system: OVCAR-8
SF-268 = system: SF-268
CCRF-CEM = system: CCRF-CEM
SNB-75 = system: SNB-75
UO-31 = system: UO-31
SF-539 = system: SF-539
SK-MEL-2 = system: SK-MEL-2
PC-3 = system: PC-3
TK-10 = system: TK-10
IGROV-1 = system: IGROV-1
CAKI-1 = system: CAKI-1

SMILES | GI50 (Malme-3M) | GI50 (A549) | GI50 (COLO 205) | GI50 (ACHN) | GI50 (NCI-H226) | GI50 (OVCAR-5) | GI50 (SK-MEL-28) | GI50 (SW-620) | GI50 (MDA-MB-231) | GI50 (OVCAR-8) | GI50 (SF-268) | GI50 (CCRF-CEM) | GI50 (SNB-75) | GI50 (UO-31) | GI50 (SF-539) | GI50 (SK-MEL-2) | GI50 (PC-3) | GI50 (TK-10) | GI50 (IGROV-1) | GI50 (CAKI-1)
CSc1nc(Cl)c2c(n1)Sc1nc3cc4c(cc3n1C2O)OCCO4 (stereo unspecified) | 0.847 µM (active) | 0.126 µM (active) | 0.0509 µM (active) | 0.131 µM (active) | 0.276 µM (active) | 4.03 µM (inactive) | 0.501 µM (active) | 0.0153 µM (active) | 0.321 µM (active) | 0.106 µM (active) | 0.459 µM (active) | 0.0246 µM (active) | 1.74 µM (inactive) | 0.112 µM (active) | 0.0247 µM (active) | 0.923 µM (active) | 0.045 µM (active) | 0.962 µM (active) | 0.138 µM (active) | 
NC(Cc1ccc(OCc2ccccc2)cn1)C(=O)O (stereo unspecified) | > 100 µM (inactive) | > 100 µM (inactive) | > 100 µM (inactive) | > 100 µM (inactive) | > 100 µM (inactive) | > 100 µM (inactive) | > 100 µM (inactive) | > 100 µM (inactive) | > 100 µM (inactive) | > 100 µM (inactive) | > 100 µM (inactive) | > 100 µM (inactive) |  | > 100 µM (inactive) | > 100 µM (inactive) |  | > 100 µM (inactive) | > 100 µM (inactive) | > 100 µM (inactive) | > 100 µM (inactive)
O=C1Oc2ccccc2C(=O)/C1=C/NC(=S)NCc1ccccc1 |  | 65.2 µM (inactive) | > 100 µM (inactive) | 25.1 µM (inactive) | > 100 µM (inactive) | > 100 µM (inactive) | > 100 µM (inactive) | 99.1 µM (inactive) | 71 µM (inactive) | 41.1 µM (inactive) |  |  | 16.9 µM (inactive) | 16.2 µM (inactive) | 43.9 µM (inactive) | 19.3 µM (inactive) | 54.3 µM (inactive) | 6.34 µM (inactive) | 38.8 µM (inactive) | 21 µM (inactive)
O=c1c2ncn(CCCl)c2n(-c2ccccc2)c(=S)n1-c1ccccc1 | > 100 µM (inactive) | > 100 µM (inactive) | > 100 µM (inactive) | > 100 µM (inactive) | > 100 µM (inactive) | > 100 µM (inactive) | > 100 µM (inactive) | > 100 µM (inactive) | > 100 µM (inactive) | > 100 µM (inactive) | > 100 µM (inactive) | > 100 µM (inactive) |  | 99.5 µM (inactive) | > 100 µM (inactive) | > 100 µM (inactive) | > 100 µM (inactive) | > 100 µM (inactive) | > 100 µM (inactive) | > 100 µM (inactive)
OC1OC(c2ccco2)C(F)(F)C(F)(F)C1(F)F (stereo unspecified) | 51.8 µM (inactive) | 74 µM (inactive) | 82.6 µM (inactive) | > 100 µM (inactive) | > 100 µM (inactive) | > 100 µM (inactive) | > 100 µM (inactive) | > 100 µM (inactive) | 65.6 µM (inactive) | > 100 µM (inactive) | 71.3 µM (inactive) | 21.9 µM (inactive) |  | 59.6 µM (inactive) | > 100 µM (inactive) | > 100 µM (inactive) | > 100 µM (inactive) | > 100 µM (inactive) | > 100 µM (inactive) | 
COC(=O)C(Cc1c[nH]c2ccccc12)NP(=O)(O)OCC1OC(n2cc(I)c(=O)[nH]c2=O)CC1O (stereo unspecified) | > 100 µM (inactive) | > 100 µM (inactive) | > 100 µM (inactive) | > 100 µM (inactive) | > 100 µM (inactive) | > 100 µM (inactive) | > 100 µM (inactive) | > 100 µM (inactive) | > 100 µM (inactive) | > 100 µM (inactive) | > 100 µM (inactive) | > 100 µM (inactive) | > 100 µM (inactive) | > 100 µM (inactive) | > 100 µM (inactive) |  | > 100 µM (inactive) | > 100 µM (inactive) | > 100 µM (inactive) | > 100 µM (inactive)
N#CCCN(CCC#N)c1ccc(/C=C2\N=C(c3ccccc3)N(NC(N)=S)C2=O)cc1 | > 100 µM (inactive) | > 100 µM (inactive) | > 100 µM (inactive) | > 100 µM (inactive) | > 100 µM (inactive) | > 100 µM (inactive) | > 100 µM (inactive) | > 100 µM (inactive) | > 100 µM (inactive) | > 100 µM (inactive) | > 100 µM (inactive) | > 100 µM (inactive) |  | > 100 µM (inactive) | > 100 µM (inactive) | > 100 µM (inactive) | > 100 µM (inactive) | > 100 µM (inactive) | > 100 µM (inactive) | > 100 µM (inactive)
Cc1nc(C)c(Cc2ccccc2)o1 | > 100 µM (inactive) | > 100 µM (inactive) | > 100 µM (inactive) | > 100 µM (inactive) | > 100 µM (inactive) | > 100 µM (inactive) | > 100 µM (inactive) | > 100 µM (inactive) | > 100 µM (inactive) | > 100 µM (inactive) | > 100 µM (inactive) | > 100 µM (inactive) | 41.4 µM (inactive) | 47.6 µM (inactive) | > 100 µM (inactive) |  | > 100 µM (inactive) | > 100 µM (inactive) | > 100 µM (inactive) | > 100 µM (inactive)
Clc1cccc(-c2nc3cccc4c3n2Cc2ncccc2-4)c1 | > 100 µM (inactive) | 21.9 µM (inactive) | > 100 µM (inactive) | 8.2 µM (inactive) | 11.8 µM (inactive) | > 100 µM (inactive) | > 100 µM (inactive) | > 100 µM (inactive) | 94.2 µM (inactive) | 92.3 µM (inactive) | 32.8 µM (inactive) | > 100 µM (inactive) | 9.04 µM (inactive) |  | 41.8 µM (inactive) |  | 73.6 µM (inactive) | 42.2 µM (inactive) | 54.3 µM (inactive) | 8.02 µM (inactive)
COc1cc2c[n+]3c4c(c2c(OC)c1OC)CCCC4CC3 (stereo unspecified) | 15.5 µM (inactive) | > 100 µM (inactive) | > 100 µM (inactive) | > 100 µM (inactive) |  | > 100 µM (inactive) | > 100 µM (inactive) | > 100 µM (inactive) | > 100 µM (inactive) |  |  | 35.3 µM (inactive) |  | > 100 µM (inactive) |  | > 100 µM (inactive) | > 100 µM (inactive) |  | > 100 µM (inactive) | > 100 µM (inactive)
O=C(NS(=O)(=O)Nc1ccc(Cl)cc1)OCc1ccc(Cl)cc1Cl | 19.1 µM (inactive) | 21.8 µM (inactive) | 16.7 µM (inactive) | 38.5 µM (inactive) |  | 24.2 µM (inactive) | 29.6 µM (inactive) | 33.3 µM (inactive) | 23.3 µM (inactive) | 31.3 µM (inactive) | 1.02 µM (active) | 57 µM (inactive) | 35.7 µM (inactive) | 17.5 µM (inactive) | 19.9 µM (inactive) | 28.8 µM (inactive) | 31.4 µM (inactive) | 16 µM (inactive) | 17.8 µM (inactive) | 
COC(=O)[C@H]1COC(=O)N1 | > 100 µM (inactive) | > 100 µM (inactive) | > 100 µM (inactive) | > 100 µM (inactive) | > 100 µM (inactive) | > 100 µM (inactive) | > 100 µM (inactive) | > 100 µM (inactive) | > 100 µM (inactive) | > 100 µM (inactive) | > 100 µM (inactive) | > 100 µM (inactive) | > 100 µM (inactive) | > 100 µM (inactive) | > 100 µM (inactive) | > 100 µM (inactive) |  | > 100 µM (inactive) | > 100 µM (inactive) | > 100 µM (inactive)
COc1cc(C2C3=C(COC3=O)OC(C)(C)Oc3cc4c(cc32)OCO4)cc(OC)c1O (stereo unspecified) | 0.746 µM (active) | 0.944 µM (active) | 2.44 µM (inactive) | 0.851 µM (active) |  | 3.58 µM (inactive) | 0.973 µM (active) | 0.608 µM (active) | 0.76 µM (active) | 0.964 µM (active) | 0.916 µM (active) | 1.36 µM (inactive) |  | 7.1 µM (inactive) | 0.467 µM (active) | 14.6 µM (inactive) | 0.444 µM (active) |  | 0.989 µM (active) | 1.87 µM (inactive)
CCOC(=O)C1c2[nH]c3ccccc3c2CCN1C(=O)c1ccco1 (stereo unspecified) | > 10 µM (inactive) | > 10 µM (inactive) | > 10 µM (inactive) | > 10 µM (inactive) |  |  | > 10 µM (inactive) | > 10 µM (inactive) | > 10 µM (inactive) | > 10 µM (inactive) | > 10 µM (inactive) | > 10 µM (inactive) | > 10 µM (inactive) |  | > 10 µM (inactive) |  | > 10 µM (inactive) | > 10 µM (inactive) | > 10 µM (inactive) | > 10 µM (inactive)
C#CCOCC12C=CC(O1)C1COC(=O)C12 (stereo unspecified) | > 100 µM (inactive) | > 100 µM (inactive) | > 100 µM (inactive) | > 100 µM (inactive) | > 100 µM (inactive) | > 100 µM (inactive) | > 100 µM (inactive) | > 100 µM (inactive) | > 100 µM (inactive) | > 100 µM (inactive) | > 100 µM (inactive) | > 100 µM (inactive) | > 100 µM (inactive) | > 100 µM (inactive) | > 100 µM (inactive) |  | > 100 µM (inactive) | > 100 µM (inactive) | > 100 µM (inactive) | > 100 µM (inactive)
Cn1c(=O)c2nc[nH]c2n(C)c1=O [THEOPHYLLINE] | > 100 µM (inactive) | > 100 µM (inactive) | > 100 µM (inactive) | > 100 µM (inactive) | > 100 µM (inactive) | > 100 µM (inactive) | > 100 µM (inactive) | > 100 µM (inactive) | > 100 µM (inactive) | > 100 µM (inactive) |  | > 100 µM (inactive) |  | > 100 µM (inactive) |  | > 100 µM (inactive) | > 100 µM (inactive) | > 100 µM (inactive) | > 100 µM (inactive) | 22.9 µM (inactive)
